The values below come from patent US20230002393A1, “CDK KINASE INHIBITOR” (BEIJING BENICALL BIOTECH CO., LTD., priority 2019, published 2023).

Each structure is given as a SMILES string.

The target in assay [1] is T1, CDK6/CyclinD1 (Homo sapiens, UniProt Q00534).
T1 construct: purchased Carna 04-114
Nature of the assay: In vitro cell-free CDK6/CyclinD1 kinase activity assay (TR-FRET). Conditions: ATP at Km. Format: biochemical. The procedure: It should be noted that the assay can also be conducted by a similar method. The assay steps in this Test Example are as follows:
The CDK6/CyclinD1 kinase activity was determined using a time-resolved fluorescence resonance energy transfer (TR-FRET) method. Measurements were performed in a reaction volume of 20 μL using 384-well assay plates. […] The reaction was stopped by adding a mixture of a peptide antibody (trade name: Cisbio, product No. 64CUSKAY) and Sa-XL665 (trade name: Cisbio, product No. 610SAXLB) diluted in HTRF KinEASE detection buffer (trade name: Cisbio, product No. 62SDBRDF, containing EDTA). After the mixture was incubated for 1 hour at room temperature, the plate was read. The TR-FRET signal was measured on a multimode plate reader (EnVision™, a multi-function microplate detector, PerkinElmer) at an excitation wavelength (λEx) of 330 nm and detection wavelengths (λEm) of 615 and 665 nm. The activity was determined by the ratio of fluorescence at 665 nm to that at 615 nm. For each compound, the enzyme activities of different concentrations of the compound were measured to determine IC50. The negative control contained no inhibitor. Two no-enzyme controls were used to determine baseline fluorescence levels. IC50 was obtained by fitting using the GraphPad 6.02 software.
8-10 concentrations were prepared for each compound, and formulated in DMSO. The stock concentration was 200× the working concentration. For example, if the working concentration was 100 nM, the corresponding concentration of the formulated stock solution was 20 μM.
In the analysis of in vitro inhibitory activity on CDK kinase, the IC50 value of each of the Example compounds and Reference Example compounds was determined.

Assay [2] concerns MCF-7 cells. The experiment in a line: Cell viability assay, MCF-7 cells (CellTiter-Glo, 168 h). The format is cell-based. Conditions: Homo sapiens, MCF7. On the procedure:
An in vitro cell viability assay was conducted using some Example compounds following the steps below:
1. After recovery, MCF-7 cells (obtained from the Shanghai Cell Bank of the Chinese Academy of Sciences) were cultured at 37° C., 5% CO2, and 95% humidity.
2. 8 compound solutions at different concentrations were prepared for each Example compound. 50 μL of the compound solution at each concentration was added to a 96-well black plate.
3. The cell concentration was adjusted to about 30,000 cells/mL. 100 μL of the cell suspension was added to the 96-well plate, and mixed well to a final cell density of about 3,000 cells/well.
4. The 96-well plate was incubated at 37° C., 5% CO2, and 95% humidity for 168 h, i.e., 7 days.
5. The cell survival rate was measured by the method of CellTiter-Glo® Luminescent Cell Viability Assay (Promega, Cat #G7572). The fluorescence data were read on a microplate reader (EnVision™, a multi-function microplate detector, PerkinElmer).
6. The obtained fluorescence data were analyzed using the GraphPad Prism software. The cell survival rate was calculated for each Example compound at each concentration, and the IC50 interval of each Example compound was determined.
Background: Cellular ATP, detected with luciferase, serves as a proxy for viable cell number.

T1 sequence (Q00534 whole entry): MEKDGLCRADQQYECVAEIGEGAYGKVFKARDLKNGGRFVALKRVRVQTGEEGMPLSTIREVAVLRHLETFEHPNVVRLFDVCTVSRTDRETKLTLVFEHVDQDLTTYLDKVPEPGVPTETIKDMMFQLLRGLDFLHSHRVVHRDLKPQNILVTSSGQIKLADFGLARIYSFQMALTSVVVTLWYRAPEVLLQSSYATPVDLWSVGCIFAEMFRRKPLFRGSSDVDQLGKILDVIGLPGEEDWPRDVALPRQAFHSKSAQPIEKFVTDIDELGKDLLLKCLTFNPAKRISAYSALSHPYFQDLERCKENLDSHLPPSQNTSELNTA
T1 sequence (P24385 whole entry partner): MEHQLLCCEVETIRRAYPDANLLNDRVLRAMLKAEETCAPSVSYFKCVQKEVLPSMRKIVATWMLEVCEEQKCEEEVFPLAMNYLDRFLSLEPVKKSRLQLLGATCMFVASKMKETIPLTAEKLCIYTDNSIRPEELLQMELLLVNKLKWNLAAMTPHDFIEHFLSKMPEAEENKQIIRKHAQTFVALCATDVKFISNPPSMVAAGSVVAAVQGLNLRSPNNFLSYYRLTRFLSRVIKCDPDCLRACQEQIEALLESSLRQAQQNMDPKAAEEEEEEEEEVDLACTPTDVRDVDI

Turning to `N#Cc1cc2cnc(Nc3ccc(N4CCNCC4)cc3)nn2c1Br` [Example 1], the IC50 in assay [1] is under 100 nM; in assay [2], under 500 nM.
In the same order, the values of `N#Cc1cc2cnc(Nc3ccc(N4CCNCC4)cc3)nn2c1C1=CCCC1` [Example 2] are under 100 nM and under 500 nM.
In the same order, the values of `N#Cc1cc2cnc(Nc3ccc(N4CCNCC4)cc3)nn2c1-c1ccccc1` [Example 3] are under 100 nM and under 500 nM.
In the same order, the values of `C1=C(c2ccc3cnc(Nc4ccc(N5CCNCC5)cc4)nn23)CCC1` [Example 4] are 100 to 1000 nM and under 500 nM.
Take `CN1CCN(c2ccc(Nc3ncc4ccc(C5=CCCC5)n4n3)cc2)CC1` [Example 5]: the values for the IC50 in assay [1] and in assay [2] were 100 to 1000 nM and under 500 nM, respectively.
In the same order, the values of `N#Cc1cc2cnc(Nc3ccc(N4CCNCC4)cc3)nn2c1N1CCCC1` [Example 6] are under 100 nM and under 500 nM.
In the same order, the values of `N#Cc1cc2cnc(Nc3ccc(N4CCNCC4)cc3)nn2c1-c1ccc(Cl)cc1` [Example 7] are under 100 nM and under 500 nM.
In the same order, the values of `Cn1cc(-c2c(Br)c3cnc(Nc4ccc(N5CCNCC5)cc4)nn3c2Br)cn1` [Example 8] are under 100 nM and 500 to 2500 nM.
On to `COc1ccc(-c2c(C#N)cc3cnc(Nc4ccc(N5CCNCC5)cc4)nn23)cc1` [Example 9], for which the IC50 in assay [1] was under 100 nM; in assay [2], under 500 nM.
With `COc1ccccc1-c1c(C#N)cc2cnc(Nc3ccc(N4CCNCC4)cc3)nn12` [Example 10], the IC50 in assay [1] is under 100 nM; in assay [2], under 500 nM.
Regarding `COc1cc(F)ccc1-c1c(C#N)cc2cnc(Nc3ccc(N4CCNCC4)cc3)nn12` [Example 11], the IC50 was under 100 nM in assay [1] and under 500 nM in assay [2].
In the same order, the values of `N#Cc1cc2cnc(Nc3ccc(N4CCNCC4)cc3)nn2c1-c1cccnc1` [Example 12] are under 100 nM and under 500 nM.
Consider `N#Cc1cc2cnc(Nc3ccc(N4CCNCC4)cc3)nn2c1-c1ccc(F)cc1` [Example 13], for which the results for the IC50 in assay [1] and in assay [2] were under 100 nM and under 500 nM, respectively.
Turning to `N#Cc1cc2cnc(Nc3ccc(N4CCNCC4)cc3)nn2c1-c1ccc2ccccc2c1` [Example 14], the IC50 in assay [1] is under 100 nM; in assay [2], under 500 nM.
In the same order, the values of `N#Cc1cc2cnc(Nc3ccc(N4CCNCC4)cc3)nn2c1-c1cccc2cccnc12` [Example 15] are 100 to 1000 nM and under 500 nM.
Regarding `N#Cc1cc2cnc(Nc3ccc(N4CCNCC4)cc3)nn2c1N1CCC2(CCNCC2)CC1` [Example 16], the IC50 was under 100 nM in assay [1] and 500 to 2500 nM in assay [2].
In the same order, the values of `N#Cc1cc2cnc(Nc3ccc(N4CCNCC4)cc3)nn2c1N1CCC2(CCCCC2)C1` [Example 17] are under 100 nM and under 500 nM.
For `COc1ccc(-c2c(C#N)cc3cnc(Nc4ccc(N5CCNCC5)cc4)nn23)cn1` [Example 18], the IC50 in assay [1] is under 100 nM; in assay [2] it was under 500 nM.
In the same order, the values of `COc1ccc(-c2c(-c3cnn(C)c3)cc3cnc(Nc4ccc(N5CCNCC5)cn4)nn23)cc1` [Example 19] are under 100 nM and 500 to 2500 nM.
In the same order, the values of `Cc1noc(C)c1-c1cc2cnc(Nc3ccc(N4CCNCC4)cn3)nn2c1-c1ccc(F)cc1` [Example 20] are 100 to 1000 nM and 500 to 2500 nM.
For `Cc1noc(C)c1-c1cc2cnc(Nc3ccc(N4CCNCC4)cn3)nn2c1C1=CCCC1` [Example 21], the IC50 in assay [1] fell in the range of 100 to 1000 nM; in assay [2], 500 to 2500 nM.
For `Cc1nn(C)cc1-c1cc2cnc(Nc3ccc(N4CCNCC4)cn3)nn2c1C1=CCCC1` [Example 23], the IC50 was 100 to 1000 nM in assay [1] and under 500 nM in assay [2].
As to `N#Cc1cc2cnc(Nc3ccc(N4CCNCC4)cn3)nn2c1-c1ccc(Cl)cc1` [Example 24], the IC50 in assay [1] is under 100 nM; in assay [2] it was under 500 nM.
In the same order, the values of `N#Cc1cc2cnc(Nc3ccc(N4CCNCC4)cn3)nn2c1C1=CCCC1` [Example 25] are under 100 nM and under 500 nM.
In the same order, the values of `N#Cc1cc2cnc(Nc3ccc(N4CCNCC4)cn3)nn2c1N1CCCC1` [Example 26] are under 100 nM and under 500 nM.
In the same order, the values of `N#Cc1cc2cnc(Nc3ccc(N4CCNCC4)cn3)nn2c1-c1cccnc1` [Example 27] are 100 to 1000 nM and 2500 to 10000 nM.
As to `CN(C)C(=O)c1cc2cnc(Nc3ccc(N4CCNCC4)cn3)nn2c1C1=CCCC1` [Example 28], the IC50 was under 100 nM in assay [1] and under 500 nM in assay [2].
In the same order, the values of `CN(C)C(=O)c1cc2cnc(Nc3ccc(N4CCNCC4)cn3)nn2c1N1CCCC1` [Example 29] are under 100 nM and under 500 nM.
With `N#Cc1cc2cnc(Nc3ccc(N4CCNCC4)cn3)nn2c1C1=CCC(=O)CC1` [Example 30], the IC50 in assay [1] lay in the range of 100 to 1000 nM; in assay [2], 2500 to 10000 nM.
Take `CN(C)C(=O)c1cc2cnc(Nc3ccc(N4CCNCC4)cn3)nn2c1N1CCCCC1` [Example 31]: the IC50 in assay [1] is under 100 nM; in assay [2], under 500 nM.
In the same order, the values of `CN(C)C(=O)c1cc2cnc(Nc3ccc(N4CCNCC4)cn3)nn2c1-c1ccc(F)cc1` [Example 32] are under 100 nM and under 500 nM.
In the same order, the values of `CN(C)C(=O)c1cc2cnc(Nc3ccc(N4CCC5(CCNCC5)CC4)cn3)nn2c1C1=CCCC1` [Example 33] are under 100 nM and under 500 nM.
In the same order, the values of `CN(C)C(=O)c1cc2cnc(Nc3ccc(N4CCNCC4)cn3)nn2c1-c1ccc(Cl)cc1` [Example 34] are under 100 nM and under 500 nM.
As for `CN(C)C(=O)c1cc2cnc(Nc3ccc(N4CCC5(CC4)CC5)cn3)nn2c1C1=CCCC1` [Example 35], the IC50 lay within 100 to 1000 nM in assay [1] and 500 to 2500 nM in assay [2].
As to `CN(C)C(=O)c1cc2cnc(Nc3ccc(N4CCNCC4)cn3)nn2c1-c1cccnc1` [Example 36], in assay [1], the IC50 was in the range of 100 to 1000 nM.
On the same count and under the same terms, to `COCCOc1ccc(-c2c(C(=O)N(C)C)cc3cnc(Nc4ccc(N5CCC6(CC5)CNC6)cn4)nn23)cc1` [Example 48] belongs under 100 nM; to `CN(C)C(=O)c1cc2cnc(Nc3ccc(N4CCNCC4)cn3)nn2c1-c1cnn(C)c1` [Example 56], 100 to 1000 nM; to `CN(C)C(=O)c1cc2cnc(Nc3ccc(N4CC5(CNC5)C4)cn3)nn2c1-c1ccncc1` [Example 61], under 100 nM.
The molecule `COc1cc(F)ccc1-c1c(C(=O)N(C)C)cc2cnc(Nc3ccc(N4CCC5(CC4)CNC5)cn3)nn12` [Example 62] showed a concentration for half-maximal inhibition (IC50) in assay [1] of 100 to 1000 nM.
The same measure, in the same setting: in the case of `CN(C)C(=O)c1cc2cnc(Nc3ccc(N4CCC5(CC4)CNC5)cn3)nn2c1-c1ccncc1` [Example 63] it was under 100 nM.
Same read-out and setting: to `CN(C)C(=O)c1cc2cnc(Nc3ccc(N4CCC5(CC4)CNC5)cn3)nn2c1-c1cnn(C)c1` [Example 64] belongs 100 to 1000 nM.
On the same count and under the same terms, in the case of `CN(C)C(=O)c1cc2cnc(Nc3ccc(N4CC5(CNC5)C4)cn3)nn2c1-c1cnn(C)c1` [Example 66] it was under 100 nM; in that of `Cc1nn(C)cc1-c1c(C(=O)N(C)C)cc2cnc(Nc3ccc(N4CC5(CNC5)C4)cn3)nn12` [Example 67], 100 to 1000 nM.
Regarding `CN(C)C(=O)c1cc2cnc(Nc3ccc(N4CC5(CCNC5)C4)cn3)nn2c1-c1cnn(C)c1` [Example 70], the IC50 in assay [1] was under 100 nM.
In assay [1], `Cn1cc(-c2cc3cnc(Nc4ccc(N5CCNCC5)cn4)nn3c2C2=CCCC2)ncc1=O` [Example 77] yielded an IC50 of 100 to 1000 nM.
Still for that read-out and setting: in the case of `Cn1cc(-c2cc3cnc(Nc4ccc(N5CCNCC5)cn4)nn3c2N2CCOCC2)cn1` [Example 79] it was under 100 nM.
The same measure, in the same setting: to `Cn1ccc(-c2cc3cnc(Nc4ccc(N5CCNCC5)cn4)nn3c2C2=CCCC2)cc1=O` [Example 80] belongs under 100 nM; to `COc1ccc(-c2c(-c3cnn(C)c3)c(-c3ccc(OC)cc3)n3nc(Nc4ccc(N5CCNCC5)cn4)ncc23)cc1` [Reference Example 129, reference compound], over 3000 nM; to `Cn1cc(-c2c(C3=CCCC3)c3cnc(Nc4ccc(N5CCNCC5)cn4)nn3c2C2=CCCC2)cn1` [Reference Example 130, reference compound], 1000 to 3000 nM.

One may read the IC50 as the concentration at which inhibition is half-maximal. Low readings indicate greater potency, high ones weaker potency.
